Experiment: Human HepG2 cell viability assay in 384 well format
Assay type: toxicity, cell-based
Parameters: dose 125 nL, time 70.5 hour; cytotoxicity at 70.5 h: concentration not given beside the values
Conditions: HepG2 cells, read-out: Inhibition

In order of rising cytotoxicity at 70.5 h:
1. Cn1nccc1NC(=O)Cn1ccc(-c2ccc3c(c2)OCO3)n1  -22.6%
2. O=S(=O)(c1ccc(-c2nc3c([nH]2)CCNC3)cc1)N1CCCC1  -11.8%
3. CC(C)NCc1cccnc1N1CCN(c2ccccn2)CC1  -11.6%
4. CN1CCN(C(=O)c2cn3ccsc3n2)[C@H]2CS(=O)(=O)C[C@H]21  -11.3%
5. CCOCC(=O)N1C[C@@H]2CC[C@H](C1)N(Cc1ccccn1)C2=O  -9.63%
6. Cc1csc2c(=O)n(C(C)Cc3cccnc3)cnc12 (configuration not stated)  -9.53%
7. CCC(CO)N(Cc1ccsc1)Cc1ccccc1C(=O)O (configuration not stated)  -8.61%
8. CCn1c(C)cc(C(=O)N2C[C@@H](C(=O)O)[C@H](c3ccccc3C)C2)c1C  -8.47%
9. Cc1cc2cccc(NC(=O)N3CCC(N(C)C)C3)c2o1 (configuration not stated)  -8.17%
10. CCc1cnc(C)nc1N1CCC(Cc2cccc(C(=O)O)c2)C1 (configuration not stated)  -7.7%
11. Cc1nnsc1C(=O)NCc1cccnc1N(C)Cc1ccccc1  -7.67%
12. CN1CCC(Cc2noc(CC3CC3)n2)CC1  -7.67%
13. CCN(C)[C@H]1CN(C(=O)c2cccc(N3CCS(=O)(=O)CC3)c2)C[C@@H]1O  -7.37%
14. COc1cccc2c1OCC(C(=O)NCCc1nc3c(s1)CCC3)C2 (configuration not stated)  -5.62%
15. CCc1nc(C)sc1CN1CCc2[nH]nc(-c3ccc(F)c(F)c3)c2C1  -5.32%
16. Cc1nc(C(=O)N2CCN(C(=O)N(C)C)[C@@H]3CS(=O)(=O)C[C@@H]32)cs1  -5.31%
17. CC(C)n1cc(C(=O)N2CCN(c3cccc(C(F)(F)F)c3)CC2)cn1  -5.28%
18. CCC(CO)N(Cc1ccc(F)cc1)Cc1c(C)nn(C)c1Cl (configuration not stated)  -3.37%
19. Cc1csc2c(=O)n(CCN3CCC(c4ccccc4)CC3)cnc12  -3.26%
20. CN(Cc1ccn[nH]1)Cc1c[nH]nc1-c1ccc(F)cc1  -3.15%
21. c1cc(-c2ccc(CN3CCC4(CCNCC4)CC3)s2)[nH]n1  -2.82%
22. CSc1ccccc1C(=O)N1C[C@@H](N(C)C)[C@H](c2ccc(C)cc2)C1  -1.92%
23. COCc1ncc(CN2CC[C@@](C)(O)[C@@H](Cc3ccccc3)C2)cn1  -1.9%
24. Cc1cc(NC2CCN(c3ccc(F)cc3)CC2)n2nc(C)cc2n1  -1.64%
25. Cc1[nH]nc(CCC(=O)N2CCOC(CCc3ccccc3)C2)c1C (configuration not stated)  -0.521%
26. CC(C)C[C@@H](CO)n1cc(-c2cncnc2)nn1  1.71%
27. COCc1noc(CC2CN(c3ncnc4sc(C)c(C)c34)CCO2)n1 (configuration not stated)  1.73%
28. COc1ccc(N2CCN(C(=O)CCn3nccc3C)CC2(C)C)cc1  1.97%
29. Cc1nonc1C1CCCN1C(=O)c1cc2n(n1)CCCNC2 (configuration not stated)  4.03%
30. COc1nccc(N2CC[C@@H](N3CCC(O)CC3)[C@H](O)C2)c1C#N  5.37%
31. CC(C)[C@@H]1CN(Cc2cnc(C3CCCCC3)nc2)C[C@H]1N(C)C  8.03%
32. CCN(CCO)C[C@@H]1CN(C(=O)c2sc3ccccc3c2C)C[C@@H]1CO  8.11%
33. O=C(c1ccnc(N2CCOC(C(F)(F)F)C2)c1)N1CCCC1 (configuration not stated)  8.43%
34. O=C(O)C1CCN(C[C@H]2CC[C@@H](Cc3ccc4c(c3)OCO4)O2)CC1  8.69%
35. O=C(c1ncccc1O)N1CCc2c(nc(-c3ccncc3)[nH]c2=O)C1  9.03%
36. COc1ccc(CCN(C)C(C(=O)O)c2ccc(F)c(C)c2)cc1OC (configuration not stated)  9.05%
37. CN(C)C(=O)N1C[C@@H]2CC[C@H](C1)N(Cc1nnc(-c3ccco3)o1)C2  10.9%
38. O=C(c1cccc(-n2cccn2)c1)N1CCCOC(Cn2cccn2)C1 (configuration not stated)  12.9%
39. Cc1nc(-c2cccc(C(=O)O)c2)c[nH]1  15.3%
40. CN1CCN(CCCOc2ccccc2CN2C[C@H]3CC[C@H]2C3)CC1  17.4%
41. COC(=O)[C@@H]1C[C@H](NC(=O)Cn2c(=O)cc(C)c3ccccc32)CN1C  26.6%
42. c1ccc(Cc2nc(C3CC3)nn2-c2ccc3c(c2)OCCO3)nc1  43.6%

— ChEMBL document CHEMBL3507680, “University of Dundee, Gates Library screen for HepG2 cell viability”
